Measurements: patent US11197891B2, “Therapies with lanthionine C-like protein 2 ligands and cells prepared therewith” (Landos Biopharma, Inc., priority 2017, dated 2021)
Where two headings read alike, the source gives them in different places.

Legend:
LANCL2 [1] = target: T1, LANCL2 (Homo sapiens, UniProt Q9NS86); assay: Surface plasmon resonance (SPR) binding to LANCL2; conditions: Tables 1A and 1B; read-out: SPR Affinity to LANCL2 (Kd)
T1 sequence (Q9NS86 1-450): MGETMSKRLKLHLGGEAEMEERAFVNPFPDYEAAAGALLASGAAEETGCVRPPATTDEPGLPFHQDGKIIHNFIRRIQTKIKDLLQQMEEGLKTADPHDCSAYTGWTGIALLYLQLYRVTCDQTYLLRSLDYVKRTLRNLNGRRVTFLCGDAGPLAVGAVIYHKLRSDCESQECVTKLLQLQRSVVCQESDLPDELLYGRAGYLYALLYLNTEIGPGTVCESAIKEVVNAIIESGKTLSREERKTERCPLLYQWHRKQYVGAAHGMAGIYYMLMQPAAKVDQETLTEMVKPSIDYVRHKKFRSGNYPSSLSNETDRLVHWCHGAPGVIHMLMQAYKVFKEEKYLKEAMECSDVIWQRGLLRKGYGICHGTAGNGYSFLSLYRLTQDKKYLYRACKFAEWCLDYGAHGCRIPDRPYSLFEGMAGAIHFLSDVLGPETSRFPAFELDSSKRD

LANCL2 [2] = target: T1, LANCL2; conditions: rows marked REF 18; read-out: SPR Affinity to LANCL2 (Kd); cited from earlier work
CD4+ T cells = assay: Differentiation of CD4+ T cells into Tregs with metabolic modulators; assay type: cell-based, mice; conditions: BT-11 with PS-48 (5 μM), DASA-58 (10 μM) or thapsigargin (10 nM)
Method: (§1) Spleens from WT and Lancl2−/− mice were excised and crushed to generate a single cell suspension. CD4+ T cell fraction was enriched by negative selection via magnetic sorting with the BD IMag system. Naïve CD4+ T cells were obtained by incubation with a biotinylated CD62L antibody followed by conjugation to streptavidin coated magnetic beads. Naïve cells were incubated for 48 hours within anti-CD3 coated tissue culture plates in complete IMDM media containing all-trans retinoic acid and purified TGF-β to stimulate differentiation into Tregs. […] Metabolic modulators, PS-48 (5 μM), DASA-58 (10 μM), and thapsigargin (10 nM), were added at 0 h. […] Six hours prior to assay, cells were stimulated with PMA and ionomycin. Cells were collected from plate for downstream analysis by flow cytometry, gene expression and metabolic assay.

WT Tregs = assay: Metabolic analysis (pyruvate kinase, pyruvate dehydrogenase, PEP) in in vitro Tregs; assay type: cell-based, mice; conditions: PS-48 (5 μM)
Method: (§2) Colons and cells were suspended within assay specific buffer and homogenized for 10 seconds. Homogenate was centrifuged for 10 minutes at 10,000×g. For enzyme activity assays, supernatant was collected and plated. Samples were mixed with enzyme developer and substrate. Colorimetric detection of NADH production was measured using a BioTek μQuant plate reader in combination with Gen5 software. For PEP assay, supernatant was deproteinized using perchloric acid mediated purification. Samples were plated and mixed with a probe, converter, developer mix. PEP concentration was measured by absorbance quantification on plate reader.
as §1, with “Cells were collected from plate for downstream analysis by flow cytometry, gene expression and metabolic assay.” left out

Mdr1a−/− mice = Mdr1a−/− mice with PS-48 injections (in vivo validation of immunometabolic effect); conditions: weekly intraperitoneal injections of PS-48
Method: as §2
To validate the in vitro immunometabolic findings, Mdr1a−/− mice were given weekly intraperitoneal injections of PS-48 or vehicle control. […] Similar patterns were observed within the DSS model.

[3] = system: PBMCs from Crohn's disease donors; assay: PBMCs isolated from Crohn's disease donors, 24 hour culture; assay type: cell-based, human; conditions: presence of thapsigargin
Method: Fresh de-identified whole blood was obtained from commercial vendor. Blood was diluted and purified for PBMC fraction by LeukoSep tube. Remaining red blood cells were lysed by hypotonic lysis. […] For siRNA experiments, cells were first incubated with an OriGene 3-mer LANCL2 siRNA or scrambled control suspended within ViromerGreen transfection reagent for 6 hours. […] Cells were stimulated with PMA and ionomycin six hours prior to assay.
Whole blood was obtained from Crohn's disease patients, clinically categorized as mild to moderate disease.

C. difficile = C. difficile culture in chopped meat media (anti-microbial properties); conditions: 10 ug/mL

Question: With `O=C(c1cccc(-c2nc3ccccc3[nH]2)c1)N1CCN(C(=O)c2cccc(-c3nc4ccccc4[nH]3)c2)CC1` [BT-4] as the compound, how does the Kd (LANCL2 [1]) read?
Answer: 84.3 µM

Question: For `O=C1CC=C(/C=C/c2ccc(C(=O)O)o2)CC1` [BT-ABA-5a], which Kd (LANCL2 [1]) is on record?
Answer: 11.7 µM

Question: Which Kd (LANCL2 [2]) does the source give for `CC1=CC(=O)CC(C)(C)[C@]1(O)/C=C/C(C)=C\C(=O)O` [ABA, abscisic acid] here?
Answer: 2.3 µM

Question: Which Kd (LANCL2 [1]) does the source give for `O=C1CCC(O)(/C=C/c2ccc(C(=O)O)o2)CC1` [BT-ABA-25] here?
Answer: 177 µM

Question: With `O=C(Nc1cccc(-c2nc3c([nH]2)C=CCC3)c1)c1ccc(C(=O)Nc2cccc(-c3nc4c([nH]3)C=CCC4)c2)cc1` [Compound 61610] as the compound, how does the Kd (LANCL2 [2]) read?
Answer: 6.2 µM

Question: Which Treg cell differentiation (CD4+ T cells) does the source give for `Nc1cccc(S(=O)(=O)N2CCCN(S(=O)(=O)c3ccc4c(c3)OCCO4)CC2)c1` [DASA-58] here?
Answer: promotes high level differentiation in both treated and untreated cells

Question: For `O=C(O)/C=C(/CCc1ccc(Cl)cc1)c1ccccc1` [PS-48, reference compound], which “BT-11 induced change in PEP and PDH activity under PS-48” value (WT Tregs) is on record?
Answer: abrogated by treatment with PS-48

Question: What about the Treg cell differentiation (CD4+ T cells) of the same compound?
Answer: abrogates the increased differentiation of Tregs generated by BT-11

Question: What about the “BT-11-induced changes across clinical, cellular and metabolic measures” value (Mdr1a−/− mice) of the same compound?
Answer: effectively blocked the BT-11-induced changes

Question: For `O=C1CCC(O)(/C=C/c2cccc(C(=O)O)c2)CC1` [BT-BA-6], which Kd (LANCL2 [1]) is on record?
Answer: 163 µM

Question: With `O=C1CCC(O)(/C=C/c2cccc(C(=O)O)n2)CC1` [BT-ABA-13] as the compound, how does the Kd (LANCL2 [1]) read?
Answer: 4.65 µM

Question: What does the source list for `C/C=C(/C)C(=O)O[C@H]1C(C)=C2[C@H]([C@@H]1OC(=O)CCCCCCC)[C@@](C)(OC(C)=O)C[C@H](OC(=O)CCC)[C@@]1(O)[C@H]2OC(=O)[C@@]1(C)O` [thapsigargin, reference compound]?
Answer: Treg cell differentiation (CD4+ T cells): diminishes the BT-11 induced increase in Treg cell differentiation; induction of FOXP3+ cells in PBMCs treated with BT-11 [3]: prevented the increased induction of FOXP3+ cells

Question: With `CN[C@H](CC(C)C)C(=O)N[C@H]1C(=O)N[C@@H](CC(N)=O)C(=O)N[C@H]2C(=O)N[C@H]3C(=O)N[C@H](C(=O)N[C@H](C(=O)O)c4cc(O)cc(O)c4-c4cc3ccc4O)[C@H](O)c3ccc(c(Cl)c3)Oc3cc2cc(c3O[C@@H]2O[C@H](CO)[C@@H](O)[C@H](O)[C@H]2O[C@H]2C[C@](C)(N)[C@H](O)[C@H](C)O2)Oc2ccc(cc2Cl)[C@H]1O` [vancomycin, reference compound] as the compound, how does the “reduction of colony forming units” value (C. difficile) read?
Answer: 95%

Question: What about the colony forming units (C. difficile; from 4 million) of the same compound?
Answer: under 200,000

Question: For `O=C1CCC(O)(/C=C/c2cc(C(=O)O)ccn2)CC1` [BT-ABA-16], which Kd (LANCL2 [1]) is on record?
Answer: 4.85 µM

Question: With `O=C(Nc1ccc(NC(=O)c2cccc(-c3nc4ccccc4[nH]3)c2)cc1)c1cccc(-c2nc3ccccc3[nH]2)c1` [BT-6] as the compound, how does the Kd (LANCL2 [1]) read?
Answer: 18.2 µM

Question: With `O=C(c1cccc(-c2nc3ccccc3[nH]2)n1)N1CCN(C(=O)c2cccc(-c3nc4ccccc4o3)n2)CC1` [BT-15] as the compound, how does the Kd (LANCL2 [1]) read?
Answer: 21.4 µM
